Measurements from US20100286400A1, “CRYSTALLINE SOLVATED FORMS OF (R)-2-[[[3-METHYL-4-(2,2,2-TRIFLUOROETHOXY)-2-PYRIDINYL]METHYL]SULFINYL]-1H-BENZIMIDAZOLE” (TAKEDA PHARMACEUTICAL COMPANY LIMITED, priority 2007, published 2010).

Assays:
Type in all cases: physicochemical
[1] = Solubility of crystal forms as a suspension of powder in water (HPLC and XRPD)
Protocol: The solubilities of Forms I, II, III, IV and VI of (R)-lansoprazole obtained in the above-mentioned Reference Example 1 and Examples were tested as a suspension of power in water at 25° C. for 5 days. The solid samples of each form were tested as-is by HPLC and XRPD without particle size determination. […] The extent of chemical degradation as a function of time was similar for all forms.

[2] = Relationships among Forms of R(+)-lansoprazole under various conditions
Excerpt: The relationships among Forms of R(+)-lansoprazole were studied under various conditions.

[3] = Interconversion slurries of mixtures of forms in aqueous saturated solutions (XRPD); details: slurry in water, ambient, additional time beyond 5 days
Protocol: Mixtures of Forms I, II, III, IV and VI were slurried in aqueous saturated solutions at ambient temperature and up to 40° C. A mixture of Form II and Pattern V material was obtained when the mixture of forms was slurried at ambient temperature for 5 days, despite the absence of Pattern V material as starting material.

Cc1c(OCC(F)(F)F)ccnc1C[S@@+]([O-])c1nc2ccccc2[nH]1 [Form I, (R)-2-[[[3-methyl-4-(2,2,2-trifluoroethoxy)-2-pyridinyl]methyl]sulfinyl]-1H-benzimidazole]
XRPD of residual solids after the solubility study ([1]; after 5 days as a suspension in water at 25° C.): a mixture consisting of Form I (major component) and Form II

Cc1c(OCC(F)(F)F)ccnc1C[S@@+]([O-])c1nc2ccccc2[nH]1 [Form II, (R)-2-[[[3-methyl-4-(2,2,2-trifluoroethoxy)-2-pyridinyl]methyl]sulfinyl]-1H-benzimidazole]
chemical degradation over time ([1]; suspension in water at 25° C. for 5 days): chemically degraded over time | order of stability in transfer (crystal form conversion) ([2]; according to Experimental Example 2 and 3, most stable first): Form II, Form VI, Form III, Form IV, and Form V, in that order | appearance on heating ([2]; vial purged with nitrogen, heated to 93° C. in an oil bath): Sample had turned brown in up to 45 seconds, removed

Cc1c(OCC(F)(F)F)ccnc1C[S@@+]([O-])c1nc2ccccc2[nH]1 [Pattern V, (R)-2-[[[3-methyl-4-(2,2,2-trifluoroethoxy)-2-pyridinyl]methyl]sulfinyl]-1H-benzimidazole]
form obtained on additional slurry time [3]: converted to Form II
